What was measured:
[1] = tested on: Hypomyces mycophilus IFO 6785 strain; test: D-amino acid production and optical purity from N-acetyl-DL-amino acid by washed fungal cells; assay type: cell-based; conditions: Hypomyces mycophilus IFO 6785 cells; 0.1% substrate, pH 7.5, 30° C., 24 hours
Procedure: (§1) A platinum loopful of Hypomyces rosellus IFO 6911 strain, Hypomyces sepulcralis IFO 9102 strain, or Hypomyces mycophilus IFO 6785 strain was inoculated into 25 ml of YM medium (containing 0.3% yeast extract, 0.3% malt extract, 0.5% peptone, and 2.0% glucose; pH 6.0) in a 500-ml shouldered flask. The fungi were shake-cultured at 24° C. for 3 days. After culturing, a 5-ml aliquot of the culture medium was centrifuged in a refrigerated centrifuge to collect the fungal cells. The cells were washed with physiological saline solution (5 ml), and collected by centrifugation again. A reaction solution (containing 0.1% N-acetyl-DL-amino acid shown in Table 2 below in Tris-HCl buffer, pH 7.5) was added to the cells thus collected. The mixture was incubated in a 5-ml test tube with shaking at 30° C. for 24 hours. D-Amino acid thus produced was assayed by high-performance liquid chromatography (column, CROWNPAK CR (Daicel Chemical); column temperature, 26° C.; mobile phase, HClO4 aqueous solution pH 2.0; flow rate, 1 ml/min; and detection, 200 nm) and examined for the optical purity.

[2] = tested on: Hypomyces rosellus IFO 6911 strain; test: as above; assay type: cell-based; conditions: Hypomyces rosellus IFO 6911 cells; 0.1% substrate, pH 7.5, 30° C., 24 hours
Procedure: as §1

[3] = tested on: Hypomyces sepulcralis IFO 9102 strain; test: as above; assay type: cell-based; conditions: Hypomyces sepulcralis IFO 9102 cells; 0.1% substrate, pH 7.5, 30° C., 24 hours
Procedure: as §1

[4] = tested on: D-aminoacylase (crude enzyme) of Auricularia auriculajudae IFO 5949; test: Crude enzyme activity for each N-Ac-D-amino acid substrate; assay type: biochemical; conditions: Auricularia auriculajudae IFO 5949 crude enzyme; 20 mM substrate, 1 mM CoCl2, 50 mM phosphate buffer pH 7.0
Procedure: (§2) Auricularia auriculajudae IFO 5949, Pythium aphanidermaatum IFO 7030, and Menisporopsis novaezelandiae IFO 9179 were each inoculated into sterilized media (100 ml each) (Czapek Dox Broth for IFO 5949, YM1 medium for IFO 7030, and POTATO DEXTROSE BROTH for IFO 9179) in 500-ml Erlenmeyer flasks. The fungi were cultured on a rotary shaker at 210 rpm at 24° C. for 7 days and collected by centrifugation using a […] centrifuge with a RPR10-2 rotor at 8,000 rpm (12,500×g) for 20 min. […] Disrupted cells thus obtained were centrifuged using a […] centrifuge with a RPR20-2 rotor at 17,500 rpm (38,000×g) for 30 min at 4° C. to obtain the supernatant as the crude enzyme. […] Figures in the table denote the amount (mM) of D-amino acids produced from the corresponding N-acetyl-D-amino acids. The D-aminoacylase activity was detected in all the strains tested, producing D-amino acid from the corresponding N-acetyl-D-amino acid.

[5] = tested on: D-aminoacylase (crude enzyme) of Menisporopsis novaezelandiae IFO 9179; test: as above; assay type: biochemical; conditions: Menisporopsis novaezelandiae IFO 9179 crude enzyme; 20 mM substrate, 1 mM CoCl2, 50 mM phosphate buffer pH 7.0
Procedure: as §2

[6] = tested on: D-aminoacylase (crude enzyme) of Pythium aphanidermaatum IFO 7030; test: as above; assay type: biochemical; conditions: Pythium aphanidermaatum IFO 7030 crude enzyme; 20 mM substrate, 1 mM CoCl2, 50 mM phosphate buffer pH 7.0
Procedure: as §2

D-aminoacylase = test: Substrate specificity of purified D-aminoacylase (TNBS method); assay type: biochemical, Hypomyces mycophilus IFO 6785; conditions: for percentage of the specific activity compared with that for N-acetyl-D-methionine taken as 100%, D-enantiomer: 20 mM substrate, 50 mM Tris-HCl pH 7.5, 30° C., 20 min
Procedure: The enzyme activity was assayed by determining the amount of amino acid produced using the TNBS method and the HPLC method. In the TMBS method, 100 mM Na2B4O7 (0.5 ml) was added to a sample solution containing amino acid (0.5 ml), 20 μl of 110 mM TNBS (trinitrobenzenesulfonic acid) was then added, and the resulting mixture was quickly stirred. After 5 min, 100 mM NaH2PO4 containing 1.5 mM Na2SO3 (2 ml) was added to the reaction mixture to terminate the color reaction, and the absorbance at 420 nm was measured. HPLC was performed by subjecting a sample solution containing amino acid to high-performance liquid chromatography using an ODS column (column, Wakosil II 5C18 (4.6 dia.×250 mm) (Wako Pure Chemical); eluent, CH3CN/50 mM KH2PO4. H3PO4 (pH 2.5)=2:8; detection, A280 nm; and flow rate, 1.0 ml/min). The retention times were 3.5 min for D-tryptophan and 9.8 min for N-acetyl-D-tryptophan. Using D-tryptophan as the assay standard, one unit (or U) of the enzyme was defined as the amount of the enzyme required to produce 1 μmol of D-tryptophan at 30° C. for 1 min.
Substrate specificity of the enzyme was expressed as the percentage of the specific activity compared with that for N-acetyl-D-methionine taken as 100%. N-chloroacetyl-D-phenylalanine, N-acetyl-D-valine, N-acetyl-D-phenylalanine, N-acetyl-D-tryptophan, N-acetyl-D-leucine, N-acetyl-L-valine, N-acetyl-L-phenylalanine, N-acetyl-L-tryptophan, and N-acetyl-L-leucine substrates were used for the comparison. The enzyme reaction was performed in 50 mM Tris-HCl (pH 7.5) containing 1 µl of the enzyme solution and 20 mM of each substrate (total volume 1.0 ml) at 30° C. for 20 min, and terminated by adding 0.5 ml of a TCA reaction terminating solution according to Tsai et al. (consisting of 110 mM trichloroacetic acid, 220 mM sodium acetate, and 330 mM acetic acid). The enzyme activity was assayed by the TNBS method as described in Example 4(2).

Fusarium solani IFO 9974 = test: D-amino acid production from N-acetyl-D-amino acid by washed fungal cells; assay type: cell-based; conditions: Fusarium solani IFO 9974 cells; 0.1% substrate, Tris-HCl pH 7.5, 30° C., 24 hours
Procedure: (§3) A platinum loopful of Hypomyces aurantius IFO 6847 strain, Hypomyces broomeanus IFO 9164 strain, Hypomyces rosellus IFO 6911 strain, Hypomyces chrysospermus IFO 6817 strain, Hypomyces sepulcralis IFO 9102 strain, Hypomyces subiculosus IFO 6892 strain, Hypomyces mycophilus ATCC 76474 or IFO 6785 strain, or Fusarium solani IFO 9974 or IFO 9975 strain was inoculated into 25 ml of YM medium (containing 0.3% yeast extract, 0.3% malt extract, 0.5% peptone, and 2.0% glucose, pH 6.0) in a 500-ml shouldered flask. The fungi were shake-cultured at 24° C. for 3 days. After culturing, a 5-ml aliquot of the culture medium was centrifuged in a refrigerated centrifuge to collect the fungal cells. The cells were washed with physiological saline solution (5 ml) and collected by centrifugation again. A reaction solution (containing 0.1% N-acetyl-D-amino acid shown in Table 1 below in Tris-HCl buffer, pH 7.5) was then added to the cells thus collected. The mixture was incubated in a 5-ml test tube with shaking at 30° C. for 24 hours.
(§4) D-Amino acid thus produced was determined by high-performance liquid chromatography (column, CROWNPAK CR (Daicel Chemical); column temperature, 26° C.; cooled in ice for only valine; mobile phase, HClO4 aqueous solution, pH 2.0; flow rate, 1 ml/min; and detection, 200 nm).

[7] = tested on: Fusarium solani IFO 9975 strain; test: as above; assay type: cell-based; conditions: Fusarium solani IFO 9975 cells; 0.1% substrate, Tris-HCl pH 7.5, 30° C., 24 hours
Procedure: as §3, §4

[8] = tested on: Hypomyces aurantius IFO 6847 strain; test: as above; assay type: cell-based; conditions: Hypomyces aurantius IFO 6847 cells; 0.1% substrate, Tris-HCl pH 7.5, 30° C., 24 hours
Procedure: as §3, §4

[9] = tested on: Hypomyces broomeanus IFO 9164 strain; test: as above; assay type: cell-based; conditions: Hypomyces broomeanus IFO 9164 cells; 0.1% substrate, Tris-HCl pH 7.5, 30° C., 24 hours
Procedure: as §3, §4

[10] = tested on: Hypomyces chrysospermus IFO 6817 strain; test: as above; assay type: cell-based; conditions: Hypomyces chrysospermus IFO 6817 cells; 0.1% substrate, Tris-HCl pH 7.5, 30° C., 24 hours
Procedure: as §3, §4

[11] = tested on: Hypomyces mycophilus ATCC 76474; test: as above; assay type: cell-based; conditions: Hypomyces mycophilus ATCC 76474 cells; 0.1% substrate, Tris-HCl pH 7.5, 30° C., 24 hours
Procedure: as §3, §4

[12] = tested on: Hypomyces mycophilus IFO 6785 strain; test: as above; assay type: cell-based; conditions: Hypomyces mycophilus IFO 6785 cells; 0.1% substrate, Tris-HCl pH 7.5, 30° C., 24 hours
Procedure: as §3, §4

[13] = tested on: Hypomyces rosellus IFO 6911 strain; test: as above; assay type: cell-based; conditions: Hypomyces rosellus IFO 6911 cells; 0.1% substrate, Tris-HCl pH 7.5, 30° C., 24 hours
Procedure: as §3, §4

[14] = tested on: Hypomyces sepulcralis IFO 9102 strain; test: as above; assay type: cell-based; conditions: Hypomyces sepulcralis IFO 9102 cells; 0.1% substrate, Tris-HCl pH 7.5, 30° C., 24 hours
Procedure: as §3, §4

[15] = tested on: Hypomyces subiculosus IFO 6892 strain; test: as above; assay type: cell-based; conditions: Hypomyces subiculosus IFO 6892 cells; 0.1% substrate, Tris-HCl pH 7.5, 30° C., 24 hours
Procedure: as §3, §4

| Structure (SMILES) | D-amino acid produced from N-acetyl-DL-amino acid [1] | D-amino acid produced from N-acetyl-DL-amino acid [2] | D-amino acid produced from N-acetyl-DL-amino acid [3] | amount of D-amino acids produced from the corresponding N-acetyl-D-amino acids [4] | amount of D-amino acids produced from the corresponding N-acetyl-D-amino acids [5] | amount of D-amino acids produced from the corresponding N-acetyl-D-amino acids [6] | percentage of the specific activity compared with that for N-acetyl-D-methionine taken as 100%, D-enantiomer (D-aminoacylase) | other results |
| --- | --- | --- | --- | --- | --- | --- | --- | --- |
| CC(=O)NC(Cc1ccccc1)C(=O)O (racemic) [N-acetyl-DL-phenylalanine] | 0.16 mg/mL | 0.21 mg/mL | 0.12 mg/mL | – | – | – | – | – |
| CC(=O)NC(Cc1c[nH]c2ccccc12)C(=O)O (racemic) [N-acetyl-DL-tryptophan] | 0.10 mg/mL | 0.24 mg/mL | 0.13 mg/mL | – | – | – | – | – |
| CC(=O)N[C@H](C)C(=O)O [N-acetyl-D-alanine, N-Acetyl-D-alanine] | – | – | – | 1.46 mM | 0.09 mM | 0.29 mM | 0% | – |
| CSCC[C@@H](NC(C)=O)C(=O)O [N-acetyl-D-methionine] | – | – | – | 2.45 mM | 0.89 mM | 0.90 mM | 100% | D-amino acid produced from N-acetyl-D-amino acid (Fusarium solani IFO 9974): 0.04 mg/mL; D-amino acid produced from N-acetyl-D-amino acid [7]: 0.02 mg/mL; D-amino acid produced from N-acetyl-D-amino acid [8]: 0.02 mg/mL; D-amino acid produced from N-acetyl-D-amino acid [9]: 0.01 mg/mL; D-amino acid produced from N-acetyl-D-amino acid [10]: 0.12 mg/mL; D-amino acid produced from N-acetyl-D-amino acid [11]: 0.10 mg/mL; D-amino acid produced from N-acetyl-D-amino acid [12]: 0.71 mg/mL; D-amino acid produced from N-acetyl-D-amino acid [13]: 0.14 mg/mL; D-amino acid produced from N-acetyl-D-amino acid [14]: 0.24 mg/mL; D-amino acid produced from N-acetyl-D-amino acid [15]: 0.03 mg/mL; activity of the enzyme for the substrate (in words) (D-aminoacylase; summary of Table 5): very active |
